# Columns and labels:
# [1] = target: T1, human recombinant renin (Homo sapiens, UniProt P00797); assay: Inhibition of human recombinant renin (modified Cayman renin inhibitor screening assay, fluorescence); type: biochemical; conditions: for inhibition at 0.01 µM: read-out: Renin inhibition (percent inhibition of renin activity) at 0.01 μM; for inhibition at 0.1 µM: read-out: Renin inhibition (percent inhibition of renin activity) at 0.1 μM
# T1 construct: purchased Cayman 10006270
# T1 sequence (P00797 67-406): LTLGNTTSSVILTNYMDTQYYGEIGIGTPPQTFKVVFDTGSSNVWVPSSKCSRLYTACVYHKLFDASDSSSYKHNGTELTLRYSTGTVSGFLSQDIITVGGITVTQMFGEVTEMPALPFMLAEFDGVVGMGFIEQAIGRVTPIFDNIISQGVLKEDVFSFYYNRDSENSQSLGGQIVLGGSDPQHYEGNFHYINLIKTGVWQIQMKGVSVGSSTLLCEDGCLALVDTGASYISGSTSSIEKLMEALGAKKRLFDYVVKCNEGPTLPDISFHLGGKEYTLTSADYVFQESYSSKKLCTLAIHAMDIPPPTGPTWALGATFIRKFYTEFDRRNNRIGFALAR
# Description: In-vitro protocol for the Inhibition of human recombinant renin by the compound of invention • Procedure: The enzymatic in vitro assay was performed in 96 well polypropylene plate (Nunc), using a modified Renin inhibitor screening assay protocol (Cayman, cat no: 10006270). The reaction system comprised assay buffer containing 50 mM Tris-HCL, pH=8.0 & 100 mM sodium chloride, human recombinant rennin (1:20 diluted with fixed activity), synthetic renin substrates (Cayman, cat no: 10006906) (14.4 μM) and different concentrations of renin inhibitors in DMSO in a total reaction system of 100 μl. The entire reaction mixture were incubated at 37° C. for 30 mins and the fluorescence was read at excitation wavelengths of 320-360 nm and emission wavelengths of 490-520 nm. Test compounds efficacy was determined by the percent inhibition of renin activity using Aliskiren (Tekturna) as a reference standard.
# Following table represents measured IC50 values of the selected compounds for its inhibition of human recombinant renin.
# [2] = test system: Guinea Pigs; assay: Anaesthetized Guinea Pig Model (furosemide-treated, blood pressure via carotid artery); type: in vivo; set-up: unit not given beside the values; conditions: intravenous, change from pretreatment
# Description: Anaesthetized Guinea Pig Model
# Experimental Procedure: Guinea Pigs were Treated with Furosemide in Drinking Water
# (5 mg/kg/day) for four days and intramuscular injection (10 mg/kg) at 18 and 3 hr before experiment. There after they were anaesthetized by using intramuscular injection of xylazine and ketamine (7:70 mg/kg mixture). The left or right jugular vein was exposed and cannulated for intravenous administration of the NCEs. The to left or right carotid artery was exposed and cannulated for recording blood pressure using Biopac system. 0 (vehicle control), 3 and 10 mg of NCEs were administered and change in blood pressure from pretreatment was measured.
# [3] = 0.01 μM compound, 37° C., 30 mins, human recombinant renin
# [4] = 0.1 μM compound, 37° C., 30 mins, human recombinant renin
IC50 [1] [nM],"inhibition at 0.01 µM [1, 3] [%]","inhibition at 0.1 µM [1, 4] [%]",melting point [°C],"Renin inhibition (percent inhibition of renin activity) at 0.01 μM [1, 3] [%]","Renin inhibition (percent inhibition of renin activity) at 0.1 μM [1, 4] [%]",Compound,Reduction in M.A.B.P ([2]; 3 mg),Reduction in M.A.B.P ([2]; 10 mg)
16,88,100,66 to 68,,,"O=C(NC1CCNCC1C(=O)N(Cc1cccc(Cl)c1Cl)C1CC1)c1ccc(OCCOc2c(Cl)cccc2Cl)cc1 (stereo not shown) [Example 1, N-cyclopropyl-N-(2,3-dichlorobenzyl)-4-(4-(2-(2,6-dichlorophenoxy)ethoxy)benzamido) piperidine-3-carboxamide]",18,30
21,,,,67,97,"Cc1cc(Cl)c(OCCOc2ccc(C(=O)N[C@H]3CCNCC3C(=O)N(Cc3cccc(C)c3C)C3CC3)cc2)c(Cl)c1 (stereo partly drawn) [Example 26, (4S)—N-Cyclopropyl-4-(4-(2-(2,6-dichloro-4-methylphenoxy)ethoxy)benzamido)-N-(2,3-dimethylbenzyl)piperidine-3-carboxamide]",14,28
37,22,91,,,,"COc1ccccc1CN(C(=O)C1CNCC[C@@H]1NC(=O)c1ccc(OCCOc2c(Cl)cc(C)cc2Cl)cc1)C1CC1.Cl (stereo partly drawn) [Example 31, (4S)—N-Cyclopropyl-4-(4-(2-(2,6-dichloro-4-methylphenoxy)ethoxy)benzamido)-N-(2-methoxybenzyl)piperidine-3-carboxamide hydrochloride]",8,28

# Source: US20120115907A1, “NOVEL COMPOUNDS AS INHIBITORS OF RENIN” (CADILA HEALTHCARE LIMITED, priority 2009, published 2012)
